We go through 19 molecules from ChEMBL document CHEMBL1137857, “Design and synthesis of substituted N-methylbenzamide analogues derived from SR 48,968 as neurokinin-2 receptor antagonists” (Bioorg Med Chem Lett, 2004).

As usually defined, the pKb is the negative decadic logarithm of the Kb, by convention in mol/L. High values mean a low Kb, low ones a high Kb. What is called Ki is the equilibrium dissociation constant of an inhibitor or competing ligand from its target. A lower Ki goes with tighter binding.

In assay [1] the target is T1, Substance-K receptor (Cavia porcellus) (UniProt Q64077).
T1 sequence (whole entry): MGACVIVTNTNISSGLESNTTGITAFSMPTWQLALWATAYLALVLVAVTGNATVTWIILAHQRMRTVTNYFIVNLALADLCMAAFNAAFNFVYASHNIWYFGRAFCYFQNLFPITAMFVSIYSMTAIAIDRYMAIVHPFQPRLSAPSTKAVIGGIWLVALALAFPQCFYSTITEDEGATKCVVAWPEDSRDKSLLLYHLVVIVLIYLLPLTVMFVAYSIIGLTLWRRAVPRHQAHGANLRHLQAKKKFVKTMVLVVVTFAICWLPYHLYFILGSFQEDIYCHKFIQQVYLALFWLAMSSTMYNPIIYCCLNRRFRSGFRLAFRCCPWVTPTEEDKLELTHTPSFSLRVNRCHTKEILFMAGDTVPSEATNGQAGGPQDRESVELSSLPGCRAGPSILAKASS
Put plainly: Antagonistic activity against Tachykinin receptor 2 binding to [b-Ala8] NKA(4-10) in isolated guinea pig trachea.

Assay [2] can be described thus: Tested for the ability to inhibit maximum contraction obtained in the presence of [b-Ala8] NKA(4-10) in isolated guinea pig trachea.
The target in assay [3] is T2, Substance-K receptor (Bos taurus, UniProt P05363).
T2 sequence (P05363 whole entry): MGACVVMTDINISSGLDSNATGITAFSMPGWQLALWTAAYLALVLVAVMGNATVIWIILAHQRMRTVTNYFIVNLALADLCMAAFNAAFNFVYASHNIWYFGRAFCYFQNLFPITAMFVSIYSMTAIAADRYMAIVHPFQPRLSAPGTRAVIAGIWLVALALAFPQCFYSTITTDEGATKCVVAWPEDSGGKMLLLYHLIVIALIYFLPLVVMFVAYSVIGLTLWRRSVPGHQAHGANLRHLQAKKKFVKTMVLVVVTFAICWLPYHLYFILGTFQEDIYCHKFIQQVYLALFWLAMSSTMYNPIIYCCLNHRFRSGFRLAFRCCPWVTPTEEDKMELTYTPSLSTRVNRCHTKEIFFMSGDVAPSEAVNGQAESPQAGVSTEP
As to the kind of experiment: Binding affinity against bovine Tachykinin receptor 2.

Regarding `CC(=O)Nc1cccc(C(=O)N(C)C[C@H](CCN2CCC(O)(c3ccccc3)CC2)c2ccc(Cl)c(Cl)c2)c1`, in assay [1], the pKb is < 8. In assay [2], the Response was found to be 96.3%.

Take `CN(C[C@H](CCN1CCC(O)(c2ccccc2)CC1)c1ccc(Cl)c(Cl)c1)C(=O)c1cccc(N=C=S)c1`: the pKb in assay [1] is < 8. In addition, the Response in assay [2] worked out at 95.8%.

For `CN(C[C@H](CCN1CCC(O)(c2ccccc2)CC1)c1ccc(Cl)c(Cl)c1)C(=O)c1cccc([N+](=O)[O-])c1`, the pKb in assay [1] is < 8. Moreover, the Response in assay [2] worked out at 98.6%.

The molecule `CN(C[C@H](CCN1CCC(O)(c2ccccc2)CC1)c1ccc(Cl)c(Cl)c1)C(=O)c1ccc(N)cc1` returned a pKb in assay [1] of 9.1. The Response in assay [2] worked out at 95.9%.

In assay [1], `CN(C[C@H](CCN1CCC(O)(c2ccccc2)CC1)c1ccc(Cl)c(Cl)c1)C(=O)c1cccc(N)c1` yielded a pKb of 9.4. The Response in assay [2] amounted to 97.4%.

Turning to `CC(=O)Nc1ccccc1C(=O)N(C)C[C@H](CCN1CCC(O)(c2ccccc2)CC1)c1ccc(Cl)c(Cl)c1`, the pKb in assay [1] was < 8. Further, the Response in assay [2] is 98.3%.

For `CN(C[C@H](CCN1CCC(O)(c2ccccc2)CC1)c1ccc(Cl)c(Cl)c1)C(=O)c1ccc(N=C=S)cc1`, the pKb in assay [1] was < 8. Moreover, in assay [2], the Response was found to be 97.6%.

Turning to `CN(C[C@H](CCN1CCC(O)(c2ccccc2)CC1)c1ccc(Cl)c(Cl)c1)C(=O)c1ccc([N+](=O)[O-])cc1`, the pKb in assay [1] was 8.55. Moreover, the Response in assay [2] was 98%.

Regarding `CN(C[C@H](CCN1CCC(O)(c2ccccc2)CC1)c1ccc(Cl)c(Cl)c1)C(=O)c1ccc(NC(=O)CBr)cc1`, in assay [1], the pKb turned out to be 8.3. In addition, the Response in assay [2] turned out to be 96%.

For the molecule `CC(=O)NC1(c2ccccc2)CCN(CCC(CN(C)C(=O)c2ccccc2)c2ccc(Cl)c(Cl)c2)CC1` (single isomer, unassigned) [SAREDUTANT], in assay [3], the Ki worked out at 0.5 nM. Also, the pKb in assay [1] came out at 9.1.

Take `CN(C[C@H](CCN1CCC(O)(c2ccccc2)CC1)c1ccc(Cl)c(Cl)c1)C(=O)c1ccccc1`: in assay [2], the Response worked out at 93.3%.

`CN(C[C@H](CCN1CCC(O)(c2ccccc2)CC1)c1ccc(Cl)c(Cl)c1)C(=O)c1ccccc1N`: the pKb in assay [1] was determined as 9.4. The Response in assay [2] was determined as 98.2%.

Take `CN(CC(CCN1CCC(O)(c2ccccc2)CC1)c1ccc(Cl)c(Cl)c1)C(=O)c1ccccc1` (stereo unspecified): the Ki in assay [3] was 1 nM. This counts as single-digit nanomolar.

`CN(C[C@H](CCN1CCC(O)(c2ccccc2)CC1)c1ccc(Cl)c(Cl)c1)C(=O)c1ccccc1N=C=S` came in with a pKb in assay [1] of 8.5. In addition, the Response in assay [2] amounted to 95.5%.

Consider `CN(C[C@H](CCN1CCC(O)(c2ccccc2)CC1)c1ccc(Cl)c(Cl)c1)C(=O)c1cccc(NC(=O)CBr)c1`, for which, in assay [1], the pKb was < 8. In assay [2], the Response came to 98%.

As to `CN(C[C@H](CCN1CCC(O)(c2ccccc2)CC1)c1ccc(Cl)c(Cl)c1)C(=O)c1ccccc1NC(=O)CBr`, in assay [1], the pKb is < 8. Also, the Response in assay [2] was 97.1%.

In turn, `CC(=O)Nc1ccc(C(=O)N(C)C[C@H](CCN2CCC(O)(c3ccccc3)CC2)c2ccc(Cl)c(Cl)c2)cc1` registered a pKb in assay [1] of 8.4. Also, the Response in assay [2] turned out to be 96.6%.

As to `CN(C[C@H](CCN1CCC(O)(c2ccccc2)CC1)c1ccc(Cl)c(Cl)c1)C(=O)c1ccccc1[N+](=O)[O-]`, the pKb in assay [1] worked out at 8.5. Moreover, in assay [2], the Response is 92.7%.

The molecule `CN(C[C@H](CCN1CCC(O)(c2ccccc2)CC1)c1ccc(Cl)c(Cl)c1)C(=O)c1ccc(F)cc1` registered a pKb in assay [1] of 9.7. In addition, in assay [2], the Response was 94.7%.
